Molecules are shown by their SMILES. Converted amounts (≈) assume the structure as drawn. Where two headings read alike, the source gives them in different places.

What all share (type): physicochemical
Data set [1] is described as follows: Approximate solvent solubility (ASS). The settings on record: for solubility: organic solvents and solvent systems, 40 °C, organic solvent or mixture, thermodynamic from solid, stirring at 40 °C. The method, then: The approximate solubility of both compounds was determined in various organic solvents and solvent systems with a range of properties, including protic, aprotic, polar, and nonpolar solvents. Solubility tests were conducted under stirring at 40 °C, with concentrations ranging from 400 to 5 mg/mL. Solvents in which the solubility was below 5 mg/mL were classified as antisolvents. […]
Experimental procedures ACBI1:
Approximate solvent solubility (ASS):
Approximately 20.00 mg were weighed in HPLC vials, and a magnetic stirrer bar was inserted. Water bath temperature was set at 40 °C, and the initial 25 μL of the appropriate solvent was added into the vial. Stirring was initiated and the slurries were brought up to the desired set temperature. Observations were recorded and the next addition was performed according to the Table S1. The samples were stirred at 40 °C overnight, cooled down to ambient conditions and observations were recorded after 24 h.

The nature of data set [2]: Dynamical vapor sorption (DVS). The settings on record: crystalline solvent-free form; 0-90% RH. The method, then:
Dynamical vapor sorption data were recorded on a DVS intrinsic system from surface measurement systems (SMS) under a N2 atmosphere. Water sorption/desorption isotherms were recorded from 0% to 90% RH followed by an additional run from 90% to 0% RH in equal steps of 10% RH.

Data set [3] in a line: Variable temperature NMR rotational barrier calculation (modified Eyring equation). The settings on record: for rotational energy barrier size: conclusion of NMR experiments. As for the experimental part: This equation allows quick evaluation of the rotational energy barrier as follows: ΔG^‡=RTcoal[22.96+ln(Tcoal/δν)] where R is the universal gas constant [J/mol·K], T coal is the coalescence temperature [K], and δν is the difference of the Larmor frequencies in [Hz] for the two observed signals for the rotameric pair. The energy calculated using this equation is given in J/mol, which is then converted into kcal/mol.
^1H NMR spectra were recorded in a suitable deuterated solvent using a Bruker Avance IIIHD NMR spectrometer with a working base frequency of 400 MHz, equipped with a helium cryogenically cooled ^1H/^13C /^15N TCI probehead. The temperature limits of the probehead are from −40 °C up to 150 °C. The ^1H NMR experiments are recorded at a proton resonance frequency of 400.13 MHz, and 100.61 MHz was used for the ^13C frequency. The temperature is regulated using a Bruker Smart Variable temperature unit and calibrated using NMR-thermometer sample calibration. The assignment of the proton and carbon signals is performed using ^1H and ^13C NMR experiments, such as 1D ^1H, 1D ^13C, and 2D experiments: ^1H–^1H COSY, ^1H–^1H ROESY, ^1H–^13C HSQC, and ^1H–^13C HMBC. The chemical shifts (δH and δC) are reported in parts per million referenced to the 0.01% of nondeuterated signal of the deuterated solvent in the proton-based experiments and to the signal of the fully deuterated solvent signal in the carbon dimensions.
The evaluation of the energy barrier for the single bond rotation by experiment serves as key information for the crystallization properties of the bRo5-like molecules. Single one-dimensional proton measurements at various temperatures in 10 K steps allow the assessment of the coalescence temperature and the calculation of the rotational barrier energy, as described below. Both model compounds, ACBI1 and BI201335, show a clearly observable doubled signal set for some of the signals in the NMR spectra at 303 K. This could be attributed to presence of rotamers and/or diastereoisomers, as shown in Figure and Figure for ACBI1 and Figure and Figure for BI201335. The discernment of whether the multiple of signal sets is observed due to a slow convergence between two or more forms or the presence of diastereoisomers is most easily accessed by performing a two-dimensional proton ROESY experiment. […] At this temperature, the exchange between the proton signals could be clearly observed by the presence of cross peaks with the same phase as the diagonal peaks. The Nuclear Overhauser Enhancement (NOE) proximity cross peaks for small molecules have an antidiagonal phase. This serves as proof for the presence of rotamers with rotational barrier that could not be overcome at 303 K and therefore no exchange cross peaks are measured. […] In contrast to the ACBI1, in the ROESY spectrum at 303 K for BI201335 the exchange cross peaks are measurable.
The variable temperature NMR experiments were performed in the temperature range from 303 to 393 K with a 10 K step in between the experiments. In the case of BI201335 there are two rotameric signal pairs for which an attempt to calculate the rotational barrier could be performed. […] An estimation of the potential rotational barrier nevertheless allows an approximation within a range of energy barriers to be calculated: if the coalescence temperature was 393 K, the rotational barrier for this signal pair would be 18.8 kcal/mol. […] At the last measured point of 393 K (clearly below the experimental coalescence temperature), the rotational barrier would be 19.4 kcal/mol. At 423 K the calculated energy barrier would be 20.9 kcal/mol, and at 453 K it would be 22.4 kcal/mol. Based on the lack of exchange signals in the ROESY spectra at lower temperatures and the shape of the signals at 393 K, a coalescence temperature around 450 K seems most plausible. Thus, the rotational barrier for ACBI1 is estimated as 22.4 kcal/mol, with an error range of about 1–1.5 kcal/mol.

Where [4] appears, read: solvents in which the compound was soluble, read-out: approximate solubility in organic solvents.

Regarding `C=C[C@@H]1C[C@]1(NC(=O)[C@@H]1C[C@@H](Oc2cc(-c3csc(NC(=O)C(C)C)n3)nc3c(Br)c(OC)ccc23)CN1C(=O)[C@@H](NC(=O)OC1CCCC1)C(C)(C)C)C(=O)O` [BI201335], the solubility in data set [1] (setting [4]) was in the range of 75 to 400 mg/mL (≈ 86.2 to 460 mM). Also, in data set [2], the “hygroscopicity (DVS isotherm plot)” value is on record as “slight hygroscopicity”. In data set [3], the “rotational energy barrier size” value is “below 20 kcal/mol”. Besides, the coalescence temperature in data set [3] (signal pair 4.46 and 4.76 ppm at 303 K) is on record as 393 K. Besides, the rotational barrier was 18.9 kcal/mol in data set [3] (signal pair 4.46 and 4.76 ppm, coalescence temperature 393 K); 18.8 kcal/mol in data set [3] (signal pair 4.62 and 4.95 ppm, if the coalescence temperature was 393 K (not reached)). Further, the rotational energy barrier in data set [3] (signal pair 4.62 and 4.95 ppm, estimated coalescence temperature 403 K) is 19.3 kcal/mol. Besides, in data set [3] (signal pair 4.62 and 4.95 ppm, not converged at 393 K), the “coalescence temperature (estimated)” value is given as “around 403 K”.

For the compound `Cc1ncsc1-c1ccc(CNC(=O)C2CC(O)CN2C(=O)C(NC(=O)C2(F)CC2)C(C)(C)C)c(OCCOc2ccc(CN3CCN(c4cc(-c5ccccc5O)nnc4N)CC3)cc2)c1` (centres unmarked) [ACBI1], the hydrophobicity result in data set [1] (from solvent solubility test (Table S1)) is given as “hydrophobic”. Moreover, the solubility is below 5 mg/mL in data set [1] (a few solvents classified as potential antisolvents, read-out: approximate solubility in antisolvents) and 50 to 400 mg/mL (≈ 53.4 to 427 mM) in data set [1] (setting [4]). Moreover, the rotational barrier in data set [3] (calculated for 393 K, clearly below the coalescence temperature) was 19.4 kcal/mol. The calculated energy barrier in data set [3] (calculated for 423 K) is on record as 20.9 kcal/mol; in data set [3] (calculated for 453 K), 22.4 kcal/mol. For the same compound, the “rotational energy barrier size” value in data set [3] is on record as “above 20 kcal/mol”. The “rotational barrier (estimated)” value in data set [3] (error range of about 1–1.5 kcal/mol) is recorded as 22.4 kcal/mol. In addition, the “coalescence temperature (most plausible)” value in data set [3] (not reached at 393 K, estimated from signal shape and ROESY) is given as “around 450 K”.
